Assays:
[1] = system: stabilized femoral fracture; experiment: fracture healing efficacy, μCT analysis of fracture callus; assay type: in vivo, male CD4 Swiss Webster mice; conditions: 6.9 nmol/kg/dose i.v. every 3 days, 3 weeks after fracture, mean±SEM
Experimental: Mouse handling. All animal experiments were performed in accordance to Purdue University's IACUC approved protocols. Forty mice (10 per group) 31-35 g male CD4 Swiss Webster mice were purchased from Harlan laboratories. Mice were able to move freely throughout the experiment. At 3 weeks following fracture induction, mice were euthanized using a CO2 overdose. […] Mouse bone fracture. […] The skin incision was made over the knee. The patella was then dislocated and a small hole was made under the patella with a 25 guage needle. The needle was used to ream the intramedullary canal. A 22 guage locking nail was produced by flattening both ends was then inserted. The incision site was sutured and the femur was then fractured using a three-point bending device. […] Mouse dosing. Mice were dosed intravenously by tail vein injection every 3 days starting on the day of fracture induction. […] Mice receiving drug dosages were administered drugs at the follow dose 6.9 nmol/kg/dose in approximately 0.1 mL of PBS. PBS control mice received 0.1 mL of PBS. μCT analysis. […] The bones were scanned while immersed in PBS to prevent dehydration. Scanco μCT software was used to analyze the images for bone density, total volume (TV), relative bone volume (BV/TV), trabecular thickness (Tb.Th), and trabecular spacing (Tb.Sp). Volumes of interest included the fracture callus, and both cortical and trabecular bone between the points on the cortical bone where the bone was fractured. Statistical analysis. Statistical analyses were calculated using Prism GraphPad software. Data is presented in results as mean±standard error of the mean (SEM).

[2] = solubility in water; assay type: physicochemical; conditions: 6BIO by itself
Description: The drug being attached to the unimers was a GSK3β inhibitor, 6BIO. […] By including 6BIO in the unimer design, the unimer solubilized the drug while the drug stabilized the micelle. The oxime of 6BIO was first conjugated to the carboxylic group of a 4-pentynoic acid derivative and then clicked to the azide-containing unimer by the alkyne on the 4-pentynoic acid derivative. Upon completion of the click reaction, the micelle was purified, dried, and formed micelles upon reconstitution in PBS.

[3] = mouse, in vivo
Experimental: CD4 Swiss mice (30-35 g) acquired from Harlan laboratories were used for these experiments.
The study was performed on 3 groups of mice with 5 mice per group. Two weeks following fracture induction each mouse received 0.1 mCi (0.1 mL) of dose. Animals were then returned to their cages until euthanasia by CO2 overdose at the desired time point (1 h, 4 h, 24 h). Animals were imaged using MiLabs U-SPECT-II/CT. 3D reconstructions were performed using Image J software.
SPECT/CT biodistribution.

[4] = 24 h organ biodistribution of radio-iodinated micelles and 6BIO in mice with femoral fracture; assay type: in vivo, CD4 Swiss mice
Experimental: Radio-iodination of micelles and 6BIO. The stannylated unimers and stannylated 6BIO (0.3-0.5 μmol) were dissolved in 100 μL DMF. The solutions were transferred to Wheaton V-vials containing a solution of [^125I]NaI (5.0 mCi) in 100 μL DMF phosphate-buffered saline (PBS) (pH 7.4). Chloramine-T was added, and the reaction mixture stirred for 15 min at ambient temperature. Purification of the iodinated micelles was performed using a LH20 column eluted with MeOH. Iodinated 6BIO was dissolved in EtOAc and was washed twice with water. The solvent of all three reactions was evaporated using a stream of nitrogen, and the residue was dissolved with PBS (pH 7.4) to obtain solutions with an activity concentration of 370 kBq/100 μL. The overall radiochemical yield was ca. 10%.
Murine fracture induction. […] The skin incision was made medial parapetellar.
Injection and dissection techniques/counting for 24 h biodistribution. From the iodinated products described previously 1 uCi/mL solutions were made in sterile PBS. […] Two weeks following fracture induction, each mouse received a 0.1 μCi (0.1 mL) dose of the radio-iodinated linear micelles, branched micelle, or free drug. Animals were then placed back in their cages for 24 h. At 24 h they were sacrificed using CO2 excess. Blood was drawn from a cardiopuncture and all other organs measured were removed (lungs, liver, spleen, kidneys, fractured femur, healthy femur). The activity was counted using Packard Cobra Auto-Gamma and was normalized by dividing the count rate by the weights of each organ.
Biodistribution: Organ biodistribution at 24 h. […] Although a cleavable linker is necessary for therapy studies, it may pose a problem with biodistribution studies. At 24 h of an in vivo study, 30% of the drug may be released. In a biodistribution study, premature release would not give accurate information on how well the targeting ligand is able to remain in the fracture site. A non-degradable oxime ether linker replaced the oxime-ester linker in the micelles for biodistribution. […]

[5] = 24 h after injection, two weeks after fracture, 125I-labelled, non-degradable oxime ether linker

SMILES: O=C1Nc2ccccc2C1=C1Nc2cc(Br)ccc2C1=NO [6BIO, 6′-bromoindirubin-3′-oxime]
- Tb. Sp (trabecular spacing) [1]: 0.191 ± 0.009 mm
- bone density of fracture callus [1]: 337.8±14.2 mg HAp/cm^3
- BV/TV (relative bone volume) ([1]; listed as Free 6BIO): 0.338 ± 0.015
- TV (callus total volume) ([1]; listed as Free 6BIO): 48.2 ± 5.8 mm^3
- Tb. Th (trabecular thickness) ([1]; listed as Free 6BIO): 0.134 ± 0.007 mm
- BV/TV (relative bone volume) ([1]; listed as free 6BIO): 0.338±0.015
- TV (callus total volume) ([1]; listed as free 6BIO): 48.2±5.8 mm^3
- Tb. Th (trabecular thickness) ([1]; listed as free 6BIO): 0.134±0.007 mm
- solubility in water [2]: not soluble in water
- SPECT/CT distribution at 1 h [3]: primarily found in the stool
- SPECT/CT distribution at 4 h [3]: primarily contained in the bowel
- SPECT/CT distribution at 24 h [3]: appears to be cleared
- accumulation in the lungs, liver, and spleen ([4]; 24 h): high accumulation
- accumulation in fractured femurs [4, 5]: 0.4±0.05% of injected dose/gram
- accumulation in healthy femurs [4, 5]: 0.5±0.10% of injected dose/gram
